Assays:
[1] = test system: subjects with MDD at imminent risk for suicide; test: Sustained response, response and remission based on MADRS, […]2001; format: in vivo, human; conditions: esketamine 84 mg; at least 50% MADRS reduction from Day 1 4 hours through Day 25
Text: • a. Changes from baseline to Day 2 and Day 25 for the MADRS total score • b. Changes from baseline to Day 1 4-hours postdose, Day 2 and Day 25 for the MADRS Suicide Item • c. Changes from baseline to Day 1 4-hours postdose, Day 2, and Day 25 for the clinical global judgment of suicide risk from the Suicide Ideation and Behavior Assessment Tool (SIBAT) • d. Sustained response (Onset of Clinical Response) defined as at least 50% reduction from baseline in MADRS total score with onset on Day 1 that is maintained through the end of the double-blind phase (Day 25) • e. Changes from baseline to Day 1 4-hours postdose, Day 2, and Day 25 for the Beck Scale for Suicidal Ideation (BSS) • f. Changes from baseline to Day 1 4-hours postdose and Day 25 for the Beck Hopelessness Scale
Sustained response is defined as at least 50% reduction from baseline in MADRS total score with onset on Day 1: 4 hours postdose that is maintained through the end of the double-blind phase (Day 25). Four subjects in the esketamine 84 mg group and 2 subjects in the placebo group had sustained response throughout the double-blind phase.

[2] = test system: subjects with MDD at imminent risk for suicide; test: MADRS total score, study […]2001; format: in vivo, human; conditions: esketamine 84 mg; baseline to Day 1, 4-hours postdose; ANCOVA
Text: Primary efficacy variable/Primary Time point: Change from baseline (Day 1, predose) to Day 1, 4-hours postdose in MADRS total score. The MADRS consists of 10 items that cover all of the core depressive symptoms, with each item scoring from 0 (item is not present or is normal) to 6 (severe or continuous presence of the symptom). A higher score represents a more severe condition.
The primary efficacy endpoint is the change in MADRS total score from baseline to Day 1: 4-hours postdose. MADRS total scores range from 0 to 60. […] As this is a phase 2a proof-of-concept study, statistical significance is based on a two-sided alpha level of 0.20. All p-values presented in this document are two-sided.

[3] = test system: subjects with MDD at imminent risk for suicide; test: Beck Scale for Suicidal Ideation (BSS), […]2001; format: in vivo, human; conditions: esketamine 84 mg; Day 1: 4-hours postdose, Day 2 (DB), or End Point (DB)
Protocol: The BSS is a 21-item self-reported instrument to detect and measure the severity of suicidal ideation in adults and adolescents aged 17 years and older. The BSS total score represents the severity of suicide ideation, and it is calculated by summing the ratings of the first 19 items; the total score ranges from 0 to 38, with a higher score representing greater suicide ideation. Increasing scores reflect increases in suicidal risk.

[4] = test system: subjects with MDD at imminent risk for suicide; conditions: esketamine 84 mg

## CN[C@]1(c2ccccc2Cl)CCCCC1=O [esketamine, (S)-2-(2-chlorophenyl)-2-(methylamino)cyclohexanone]
[1]
  Subjects with sustained response throughout the double-blind phase: Four
[2]
  MADRS total score, least-square mean difference (SE) from placebo: −5.3 (2.10)
[3]
  BSS total score change vs placebo: no statistically significant differences
[4]
  Subjects who discontinued from the double-blind phase due to (treatment-emergent) adverse events: 5 subjects
[4]; double-blind phase
  Subjects with a serious TEAE: Four
  Subjects with at least one TEAE: 94.3%
  TEAE dissociation: 31.4%
  TEAE dizziness: 34.3%
  TEAE dysgeusia: 31.4%
  TEAE headache: 31.4%
  TEAE nausea: 37.1%
  TEAE vomiting: 20.0%
[4]; follow up phase
  Subjects with a serious adverse event: 1 subjects
  Subjects with at least one adverse event: 48.1%

— patent US11707440B2 (priority 2017, dated 2023)
